We go through 2 compounds from patent US20260184700A1, “PDK1 REGULATORY COMPOUND AND COMPOSITION CONTAINING THE SAME” (PROVIBIO CO., LTD., priority 2024, published 2026).

Data set [1] has as its system Human Osteosarcoma, Saos-2. Description: Relative cell viability, CCK-8, Saos-2. The data set is classed as cell-based. On the procedure:
Human-derived head and neck cancer cell line Fadu and osteosarcoma cell line Saos-2 were cultured in MEM medium containing 10% FBS, 100 U/mL penicillin, and 100 μg/mL streptomycin.
Following stabilization, the cells were harvested using Trypsin-EDTA treatment, centrifuged at 1,200 rpm for 3 minutes, the supernatant was removed, and the cells were resuspended in the same medium. They were then seeded into a 96-well plate (Costar 96-well cell culture plate, Corning) at 100 μL per well, and the conditions were adjusted as indicated in Table 5.
The cells were cultured in a 5% CO2 incubator at 37° C. for 24 hours, and after stabilization of the cells, each plate was washed with 200 μL of PBS per well and treated with 50 μL of culture medium per well. […]
After that, 10 μL of CCK-8 was added to each well, and the plate was incubated again at 37° C. in a 5% CO2 incubator for 2 hours.
In other words, when the survival rate of untreated cells (DMSO) is set at 100%, the relative cell survival rate in each group treated with the drug at different concentrations is indicated.

Data set [2] deals with skin-grafted C57BL/6 mice. Kind of data set: Skin graft animal model (BALB/c donor, C57BL/6 recipient). The conditions noted are these: GO88 0.15 mg/kg twice daily. The data set is classed as in vivo, mouse. The procedure: To evaluate the immune-suppressive effects of the compounds according to the present invention, a skin graft animal model was established, and the efficacy of the compounds was analyzed in the model.
First, female BALB/c mice aged 7 weeks and weighing approximately 20 g were used as donor animals, and female C57BL/6 mice of the same age and weight were used as recipient animals. All experimental animals were supplied by HanabioTech Co., Ltd.
Prior to the experiment, the animals were acclimatized in SPF-certified facilities for one week and then used in the experiment. The housing conditions were maintained at a temperature of 22±2° C., relative humidity of 55±10%, and a 12-hour light-dark cycle.
To establish the skin graft model, a anesthetic solution consisting of ketamine, […], and PBS in a volume ratio of 1:1:3 was administered intraperitoneally to C57BL/6 mice to induce anesthesia.
The hair on the dorsal side of the anesthetized mice was removed and disinfected, followed by excision of the full-thickness skin using an 8 mm punch. Subsequently, skin of the same size was harvested from donor mice (BALB/c) and transplanted. […]
Subsequently, the proportions of CD3- and B220-positive cells were analyzed using a flow cytometer.

The target of data set [3] is T1, full-length (PDK1-FL) protein of human-derived PDK1 (Homo sapiens, UniProt O15530).
T1 construct: the full-length (PDK1-FL) protein of human-derived PDK1; inferred from the Ni-NTA purification; made in house; host or cells: Sf9 insect cells, baculovirus
T1 sequence (O15530 1-556): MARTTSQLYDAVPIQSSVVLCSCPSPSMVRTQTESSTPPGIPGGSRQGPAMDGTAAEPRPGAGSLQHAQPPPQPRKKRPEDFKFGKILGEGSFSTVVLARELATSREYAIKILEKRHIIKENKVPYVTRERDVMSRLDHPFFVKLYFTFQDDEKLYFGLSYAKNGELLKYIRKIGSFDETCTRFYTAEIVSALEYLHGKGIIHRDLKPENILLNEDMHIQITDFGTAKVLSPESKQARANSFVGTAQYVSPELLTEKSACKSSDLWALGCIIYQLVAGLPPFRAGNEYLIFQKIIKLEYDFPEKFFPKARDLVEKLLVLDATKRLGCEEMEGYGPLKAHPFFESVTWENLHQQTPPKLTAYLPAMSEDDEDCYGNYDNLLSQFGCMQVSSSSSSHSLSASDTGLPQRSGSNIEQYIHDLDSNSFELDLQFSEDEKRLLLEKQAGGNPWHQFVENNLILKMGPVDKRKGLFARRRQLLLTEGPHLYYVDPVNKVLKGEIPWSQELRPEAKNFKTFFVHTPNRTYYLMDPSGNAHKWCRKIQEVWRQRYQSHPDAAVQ
Description: Microscale Thermophoresis (MST) binding, full-length PDK1. The conditions noted are these: Kd ratio. The procedure:
Microscale Thermophoresis (MST) analysis was performed to quantitatively measure the binding affinity between PDK1 protein and substrate peptides (PDKTide) or the company-developed low-molecular-weight compound (GO88).
The target proteins were the full-length (PDK1-FL) protein of human-derived PDK1 and the Protein Kinase Domain (PKD) fragment, which were expressed using a baculovirus expression system in insect cell lines (Sf9).
The purity of the purified proteins was confirmed by SDS-PAGE and Coomassie Brilliant Blue staining.
The purified protein was labeled with a fluorescent label using the Monolith NT™ RED-NHS Protein Fluorescent Labeling Kit (NanoTemper).
Specifically, 20 μM of the protein was dissolved in PBS (pH 7.4) buffer, mixed with the fluorescent reagent, and reacted at room temperature under dark conditions for 30 minutes. The mixture was then buffered with MST analysis buffer (50 mM HEPES, 150 mM NaCl, 1 mM DTT, 0.05% Tween-20, pH 7.5). […]
The reaction samples were injected into an MST-specific capillary (NanoTemper) and analyzed using a Monolith NT.115 device (NanoTemper) under laser intensity conditions. […]
The measured data were analyzed using MO.Affinity Analysis software (NanoTemper), and the dissociation constant (Kd) was calculated from the binding curve.

In the case of `CC1(C)CN(CCCCCCCCCCCCC(=O)Nc2nc(N)c3[nH]cnc3n2)CCO1` [Compound 11, 12-[4-(2,2-dimethylmorpholin-4-yl)]dodecyl-N-(6-aminopurine-2-yl)carboxamide], the “Relative cell viability (%)” value was 24.98% in data set [1] (Saos-2, 10 μM, 48 hours); 16.00% in data set [1] (Saos-2, 30 μM, 48 hours); 36.73% in data set [1] (Saos-2, 50 μM, 48 hours); 36.73% in data set [1] (Saos-2, 48 hours).
For `Nc1ncccc1C(=O)NCCCCCCCCCCCCN1CCNCC1` [Compound 14, 2-Amino-N-(12-(piperazin-1-yl)dodecyl)nicotinamide], the “animals with graft pinkening and good blood flow” value is recorded as “three out of five animals” in data set [2] (day 10 post-transplantation) and “one out of five animals” in data set [2] (day 15 post-transplantation). Besides, the “binding affinity of full-length PDK1 compared to the PDK fragment” value in data set [3] is recorded as “six times stronger binding affinity”.
